Data as given in patent US7718768B2, “Biologically active peptide [sequence]” (CMS Peptides Patent Holding Company Limited, priority 2001, dated 2010).
Marks after values point to notes of the source that are not given here. No end group written: not given here.

Assays:
B16 melanoma cells = assay: lung metastasis foci of inoculated B16 melanoma cells, postmortem examination; format: in vivo, C57BL/6 mice
Method: Intraperitoneal injection, once per day. […] Treatment of all groups with testing substance lasted for 30 days or until the animal died unless otherwise specified. […] The cell concentration was adjusted to 1×10^5 per ml with Hank's solution and 0.1 ml of the cell suspension was injected via the tail vein into the testing mice to generate the B16 melanoma bearing animal model. Treatment with test substance started as described in section Method 1. […] Postmortum Examination of the Animals was Performed. The Pathological Changes were Recorded, and the Numbers of Melanoma Lung Metastasis Foci were Counted. Results 1. The Effect of Peptide on the Cellular Phagocytosis in BALB/c Mice with Transplanted S180 Sarcoma (Method 2.1)

[1] = body weight of rats fed high nutrition diet (obesity induced by over-feeding); format: in vivo, Sprague-Dawley (SD) rats
Method: Sprague-Dawley (SD) rats, weighing 145±10 g, were supplied by the Center of Experimental Animal of Guangzhou University of Traditional Chinese Medicine, PR China (certificate No.: 2000A019). Peptides were custom synthesized (of L-amino acids origin) by American Peptide Company, Inc., USA, and were diluted to 10 μg/ml in normal saline. The high and normal nutrition diets were prepared in compliance with the guideline for pre-clinical research of anti-obesity drug, issued by SDA (State Drug Administration), PR China^[1].
Healthy rats were randomized into the experiment, positive control, and negative control groups. 10 rats per group, half male and half female. The experiment group of rats was fed with high nutrition diet for 5 weeks with simultaneous intramuscular injection of 300 μg/kg/day peptide, once per day. Positive control group received the same high nutrition diet but placebo saline injection, while negative control group, used to proof successful establishment of obesity model, received normal nutrition diet and placebo saline injection. After 5 weeks treatment, injection was stopped and the same diet was maintained for another 3 weeks. The rats were weighed at once per week interval. Behaviour of the rats was also observed.
The data were presented as mean±standard deviation. Paired t test or single-factor ANOVA was used for inter and intra group comparison. Statistical significance cut-off was at P≦0.05.

[2] = system: Duck Hepatitis B Virus (DHBV); assay: Chongqing duck hepatitis B model, serum DHBV DNA by dot-blot hybridization; format: in vivo, Chongqing ducks; details: CMS001 50 μg/kg/day i.p., lamivudine 50 mg/kg/day oral
S180 sarcoma cells = assay: growth of transplanted S180 sarcoma; format: in vivo, BALB/c mice; details: for Tumor inhibition index: versus saline group
Method: (§1) Intraperitoneal injection, once per day. […] Treatment of all groups with testing substance lasted for 30 days or until the animal died unless otherwise specified.
Stock S180 sarcoma cells were incubated in DMEM/F12 medium supplemented with 10% fetal bovine serum, 37° C., 5% CO2 for 72 hrs, then washed 3-4 times with Hank's solution at room temperature. Adjust the cell concentration to 1-2×10^9 per liter with Hank's solution. […] The mice were killed by cervical vertebra dislocation. Vigorously growing and non-disrupted tumor masses were harvested and washed clean with sterile saline. The tissue was dispersed in saline to a homogenous cell suspension, in a ratio of 1 g tissue to 4 ml saline. The sarcoma bearing mice model was prepared with an injection of 0.2 ml cell suspension through the armpit. Administration of test substance treatment started as described in section Method 1.
After the phagocytosis index study, the mice were killed by cervical vertebra dislocation. The liver, spleen, and cancer tissue were dissected, blotted dry, and weighed.
2.2 The Tumor Growth Inhibition Index was Calculated According to the Following Formula: Tumor growth inhibition index=(mean tumor weight of control group−mean tumor weight of treatment group)÷mean tumor weight of control group 3.

L1210 leukemia = assay: survival of mice with transplanted L1210 leukemia; format: in vivo, DBA/2 mice; details: for Survival index: versus saline group
Method: as §1
Stock L1210 cells were incubated in DMEM/F12 medium supplemented with 10% fetal bovine serum, 37° C./5% CO2 for 72 hrs, then washed 3-4 times with Hank's solution, and adjusted to 1×10^5 cells per liter. 0.1 ml of the cell suspension was implanted into the abdominal cavity of several healthy DBA mice for 6-8 days. The mice were then killed by cervical vertebra dislocation and their ascitic fluid collected aseptically. The cell concentration of the collected ascitic fluid was adjusted to 1×10^5 per ml with Hank's solution. 0.1 ml of the cell suspension was implanted into each of the testing animal and the survival data of the animals recorded. Treatment started in the testing animals as described in section Method 1. Mean survival day was obtained by the Kaplan-meier method in the Survival option of the SPSS software. If the animal survived longer than the experiment, the survival days was entered as the duration of the experiment. The survival index was calculated according to the following formula: Survival index=(mean survival days of treatment group−mean survival days of control group)÷mean survival days of control group 6. The Effect of Peptides on the Humoral Immunity of C57BL/6 Mice Bearing Transplanted B16 Melanoma, and that on the Metastatic Potential of the Inoculated Melanoma Cells

[3] = 3 × 10^5 IU/kg i.p. once per day

With IGMESAGIHETTY [CMS016] the “B16 metastatic foci in the lung, postmortem examination” value (“B16 metastatic foci in the lung” below) (B16 melanoma cells; 5 μg/kg/day i.p.) was “did not show any sign of existence of B16 metastatic foci in the lung” and the “B16 metastatic foci in the lung” value (B16 melanoma cells; 500 μg/kg/day i.p.) was “did not show any sign of existence of B16 metastatic foci in the lung”.

In the case of KAVGHLDDLPGAL [CMS008], the “B16 metastatic foci in the lung” value (B16 melanoma cells; 0.5 μg/kg/day i.p.) is reported as “did not show any sign of existence of B16 metastatic foci in the lung”, the “B16 metastatic foci in the lung” value (B16 melanoma cells; 5 μg/kg/day i.p.) is reported as “did not show any sign of existence of B16 metastatic foci in the lung” and the “B16 metastatic foci in the lung” value (B16 melanoma cells; 50 μg/kg/day i.p.) is reported as “did not show any sign of existence of B16 metastatic foci in the lung”.

In the case of PSIVGRPRHQGVM [CMS015], the body weight ([1]; Pre-treatment, Female n = 5, 300 μg/kg/day intramuscular) is reported as 129.2 ± 3.3 g, the body weight ([1]; Pre-treatment, Male n = 5, 300 μg/kg/day intramuscular) is reported as 145.6 ± 8.5 g and the body weight ([1]; Week 1, Female, 300 μg/kg/day intramuscular) is reported as 157.8 ± 8.3 g. For the same molecule, the body weight ([1]; Week 1, Male, 300 μg/kg/day intramuscular) was 183.8 ± 10.6 g, the body weight ([1]; Week 2, Female, 300 μg/kg/day intramuscular) was 176.0 ± 11.2 g and the body weight ([1]; Week 2, Male, 300 μg/kg/day intramuscular) was 220.6 ± 12.2 g. It also gave a body weight ([1]; Week 3, Female, 300 μg/kg/day intramuscular) of 196.0 ± 10.5 g, a body weight ([1]; Week 3, Male, 300 μg/kg/day intramuscular) of 239.0 ± 16.0 g and a body weight ([1]; Week 4, Female, 300 μg/kg/day intramuscular) of 212.0 ± 13.5 g. The body weight ([1]; Week 4, Male, 300 μg/kg/day intramuscular) was 258.2 ± 18.1 g, the body weight ([1]; Week 5 (last week of injection), Female, 300 μg/kg/day intramuscular) was 221.4 ± 13.2 g and the body weight ([1]; Week 5 (last week of injection), Male, 300 μg/kg/day intramuscular) was 268.8 ± 17.7 g. The body weight ([1]; Week 6 (injection stopped after week 5), Female) was 235.6 ± 16.3 g, the body weight ([1]; Week 6 (injection stopped after week 5), Male) was 299.4 ± 21.2 g and the body weight ([1]; Week 7 (injection stopped after week 5), Female) was 242.2 ± 18.8 g. For the same molecule, the body weight ([1]; Week 7 (injection stopped after week 5), Male) was 310.4 ± 25.9 g, the body weight ([1]; Week 8 (injection stopped after week 5), Female) was 252.8 ± 22.5 g and the body weight ([1]; Week 8 (injection stopped after week 5), Male) was 337.4 ± 30.6 g.

With PTTKTYFPHF [CMS001] the “Serum DHBV DNA level” value ([2]; Day 0 (before treatment), Mean ± Standard Deviation) was 21 ± 18 10^3 units, the “Serum DHBV DNA level” value ([2]; Day 7 of treatment) was 11 ± 13 10^3 units and the “Serum DHBV DNA level” value ([2]; Day 14 of treatment) was 20 ± 18 10^3 units. The “Serum DHBV DNA level” value ([2]; Day 21 of treatment) was 14 ± 14 10^3 units, the “Serum DHBV DNA level” value ([2]; Day 28 (end of 4 weeks treatment)) was 5 ± 3* 10^3 units and the “Serum DHBV DNA level” value ([2]; Day 35 (one week after termination of treatment)) was 18 ± 16 10^3 units.

Work on “Phe Val Asn Asp (FVND; listed as Sus scrofa) [CMS035]” yielded a Tumor weight (S180 sarcoma cells; 5 μg/kg i.p. once per day) of 0.71 ± 0.37 g, a Tumor inhibition index (S180 sarcoma cells; 5 μg/kg i.p. once per day) of 44.6% and a Survival days (L1210 leukemia; 0.5 μg/kg i.p. once per day) of 29.3 ± 15.4 days. For the same molecule, the Survival index (L1210 leukemia; 0.5 μg/kg i.p. once per day) was 76.1%.

“Pro Glu Asn Phe (PENF; listed as Sus scrofa) [CMS034]” gave a Tumor weight (S180 sarcoma cells; 0.5 μg/kg i.p. once per day) of 0.83 ± 0.48 g and a Tumor inhibition index (S180 sarcoma cells; 0.5 μg/kg i.p. once per day) of 35.9%.

Molecule VAPEEHPTLLTEAPLNPK [CMS010] has a Tumor weight (S180 sarcoma cells; 500 μg/kg i.p. once per day) of 0.67 ± 0.35 g and a Tumor inhibition index (S180 sarcoma cells; 500 μg/kg i.p. once per day) of 48.4%.

For VGMGQKDSY [CMS019], the Survival days (L1210 leukemia; 0.5 μg/kg i.p. once per day) was 21.1 ± 5.8 days and the Survival index (L1210 leukemia; 0.5 μg/kg i.p. once per day) was 26.8%.

B1: IFN-γ: recombinant mouse interferon-γ, Beijing Biotech Inc.; positive control immunostimulant (protein, UniProt P01580 23-155, looked up)
Interferon gamma: HGTVIESLESLNNYFNSSGIDVEEKSLFLDIWRNWQKDGDMKILQSQIISFYLRLFEVLKDNQAISNNISVIESHLITTFFSNSKAKKDAFMSIAKFEVNNPQVQRQAFNELIRVVHQLLPESSLRKRKRSRC
In the case of B1, the Tumor weight (S180 sarcoma cells; [3]) is reported as 0.96 ± 0.45 g, the Tumor inhibition index (S180 sarcoma cells; [3]) is reported as 25.3% and the Survival days (L1210 leukemia; [3]) is reported as 15.6 ± 2.2 days.
